Measurements reported in patent US10597388B2, “Pyridazinone herbicides” (FMC CORPORATION, priority 2014, dated 2020).

Experiments:
Format in all cases: in vivo
[1] = tested on: pigweed (Amaranthus retroflexus); experiment: Test A greenhouse herbicide test, pre- and postemergence
In short: (§1)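 Seeds sown in loam–sand blend got a preemergence directed soil spray of compound in non-phytotoxic solvent with surfactant. Postemergence treatment was given at 2–10 cm, one- to two-leaf stage. After ~10 d in greenhouse, injury was rated visually vs untreated controls, 0 (no effect) to 100 (complete control).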

[2] = tested on: ryegrass, Italian (Italian ryegrass, Lolium multiflorum); experiment: as above
In short: as §1

[3] = tested on: wheat (Triticum aestivum); experiment: as above; details: Postemergence
In short: as §1

[4] = tested on: blackgrass (Alopecurus myosuroides); experiment: Test A greenhouse herbicide test, postemergence
In short: (§2)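 Plants grown in loam soil/sand blend pots were treated postemergence at 2 to 10 cm height, one- to two-leaf stage, with formulated test chemicals. After approximately 10 d in a greenhouse, injury was rated visually against untreated controls on a 0 to 100 scale (0 no effect, 100 complete control).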

[5] = tested on: galium (catchweed bedstraw, Galium aparine); experiment: Test A greenhouse herbicide test, postemergence
In short: as §2

[6] = tested on: lambsquarters (Chenopodium album); experiment: Test C greenhouse herbicide test, pre- and postemergence
Description: (§3) Seeds of plant species selected from blackgrass (Alopecurus myosuroides), ryegrass, Italian (Italian ryegrass, Lolium multiflorum), wheat (winter wheat, Triticum aestivum), galium (catchweed bedstraw, Galium aparine), corn (Zea mays), large crabgrass, large (large crabgrass, Digitaria sanguinalis), foxtail, giant (giant foxtail, Setaria faberii), johnsongrass (Sorghum halepense), lambsquarters (Chenopodium album), morningglory (Ipomoea coccinea), nutsedge, yellow (yellow nutsedge, Cyperus esculentus), pigweed (Amaranthus retroflexus), ragweed (common ragweed, Ambrosia elatior), soybean (Glycine max), barnyardgrass (Echinochloa crus-galli), oilseed rape (Brassica napus), waterhemp (common waterhemp, Amaranthus rudis), and velvetleaf (Abutilon theophrasti) were planted into a blend of loam soil and sand and treated preemergence with test chemicals formulated in a non-phytotoxic solvent mixture which included a surfactant.
(§4) At the same time, plants selected from these crop and weed species and also chickweed (common chickweed, Stellaria media), kochia (Kochia scoparia), and oat, wild (wild oat, Avena fatua), were planted in pots containing Redi-Earth® planting medium (Scotts Company, 14111 Scottslawn Road, Marysville, Ohio 43041) comprising spaghnum peat moss, vermiculite, wetting agent and starter nutrients and treated with postemergence applications of test chemicals formulated in the same manner. Plants ranged in height from 2 to 18 cm (1- to 4-leaf stage) for postemergence treatments. Treated plants and controls were maintained in a greenhouse for 13 to 15 d, after which time all species were compared to controls and visually evaluated. Plant response ratings, summarized in Table C, are based on a scale of 0 to 100 where 0 is no effect and 100 is complete control. A dash (-) response means no test result.

[7] = tested on: morningglory (Ipomoea coccinea); experiment: as above
Description: as §3, §4

[8] = tested on: oilseed rape (Brassica napus); experiment: as above
Description: as §3, §4

[9] = tested on: pigweed (Amaranthus retroflexus); experiment: as above
Description: as §3, §4

[10] = tested on: ragweed (common ragweed, Ambrosia elatior); experiment: as above
Description: as §3, §4

[11] = tested on: waterhemp (common waterhemp, Amaranthus rudis); experiment: as above
Description: as §3, §4

[12] = Postemergence, 125 g ai/ha, visual rating after approx. 10 d, 0 to 100 scale (0 no effect, 100 complete control)
[13] = Postemergence, 500 g ai/ha, 0 to 100 scale, 0 is no effect, 100 is complete control
[14] = Preemergence, 125 g ai/ha, 0 to 100 scale where 0 is no effect and 100 is complete control
[15] = Preemergence, 500 g ai/ha, 0 to 100 scale, 0 no effect, 100 complete control
[16] = 125 g ai/ha, visual rating after approx. 10 d, 0 to 100 scale (0 no effect, 100 complete control)
[17] = 500 g ai/ha, 0 to 100 scale, 0 is no effect, 100 is complete control
[18] = Postemergence, 31 g ai/ha, 0 to 100 scale (0 no effect, 100 complete control)
[19] = Postemergence, 125 g ai/ha, scale 0 to 100, 0 is no effect, 100 is complete control
[20] = Postemergence, 250 g ai/ha, scale 0 to 100, 0 no effect, 100 complete control, 13 to 15 d
[21] = Preemergence, 31 g ai/ha, scale 0 to 100, 0 is no effect, 100 is complete control
[22] = Preemergence, 62 g ai/ha, scale 0 to 100, 0 is no effect, 100 is complete control
[23] = Preemergence, 125 g ai/ha, scale 0 to 100, 0 is no effect, 100 is complete control
[24] = Preemergence, 250 g ai/ha, scale 0 to 100, 0 no effect, 100 complete control
[25] = postemergence, 62 g ai/ha, scale 0 to 100, 0 no effect, 100 complete control

## Cc1nn(C)c(=O)c(-c2c(C)sc3ccc(Br)cc23)c1O [Compound 22]
[1]; [12]
  Plant response rating, Pigweed: 100
[1]; [13]
  Pigweed plant response rating: 100
[1]; [14]
  Pigweed plant response rating: 100
[1]; [15]
  Plant response rating, Pigweed: 100
[2]; [12]
  Plant response rating, Ryegrass, Italian: 80
[2]; [13]
  Ryegrass, Italian plant response rating: 100
[2]; [14]
  Ryegrass, Italian plant response rating: 100
[2]; [15]
  Plant response rating, Ryegrass, Italian: 100
[3]; [16]
  Plant response rating, Wheat: 0
[3]; [17]
  Wheat plant response rating: 0
[4]; [16]
  Plant response rating, Blackgrass: 50
[4]; [17]
  Blackgrass plant response rating: 70
[5]; [16]
  Plant response rating, Galium: 90
[5]; [17]
  Galium plant response rating: 100
[6]; [18]
  Lambsquarters plant response rating: 70
[6]; [19]
  Plant response rating, Lambsquarters: 90
[6]; [20]
  Plant response rating, Lambsquarters: 90
[6]; [21]
  Plant response rating, Lambsquarters: 25
[6]; [22]
  Plant response rating, Lambsquarters: 45
[6]; [23]
  Plant response rating, Lambsquarters: 90
[6]; [24]
  Lambsquarters plant response rating: 90
[6]; [25]
  Lambsquarters plant response rating: 85
[7]; [18]
  Morningglory plant response rating: 100
[7]; [19]
  Plant response rating, Morningglory: 100
[7]; [20]
  Plant response rating, Morningglory: 100
[7]; [21]
  Plant response rating, Morningglory: 30
[7]; [22]
  Plant response rating, Morningglory: 85
[7]; [23]
  Plant response rating, Morningglory: 100
[7]; [24]
  Morningglory plant response rating: 100
[7]; [25]
  Morningglory plant response rating: 100
[8]; [18]
  Oilseed Rape plant response rating: 5
[8]; [19]
  Plant response rating, Oilseed Rape: 90
[8]; [20]
  Plant response rating, Oilseed Rape: 75
[8]; [21]
  Plant response rating, Oilseed Rape: 0
[8]; [22]
  Plant response rating, Oilseed Rape: 5
[8]; [23]
  Plant response rating, Oilseed Rape: 5
[8]; [24]
  Oilseed Rape plant response rating: 80
[8]; [25]
  Oilseed Rape plant response rating: 15
[9]; [18]
  Pigweed plant response rating: 85
[9]; [19]
  Plant response rating, Pigweed: 90
[9]; [20]
  Plant response rating, Pigweed: 98
[9]; [21]
  Plant response rating, Pigweed: 60
[9]; [22]
  Plant response rating, Pigweed: 100
[9]; [23]
  Plant response rating, Pigweed: 100
[9]; [24]
  Pigweed plant response rating: 100
[9]; [25]
  Pigweed plant response rating: 75
[10]; [18]
  Ragweed plant response rating: 70
[10]; [19]
  Plant response rating, Ragweed: 90
[10]; [20]
  Plant response rating, Ragweed: 100
[10]; [21]
  Plant response rating, Ragweed: 30
[10]; [22]
  Plant response rating, Ragweed: 75
[10]; [23]
  Plant response rating, Ragweed: 90
[10]; [24]
  Ragweed plant response rating: 100
[10]; [25]
  Ragweed plant response rating: 75
[11]; [18]
  Waterhemp plant response rating: 75
[11]; [19]
  Plant response rating, Waterhemp: 75
[11]; [20]
  Plant response rating, Waterhemp: 90
[11]; [22]
  Plant response rating, Waterhemp: 80
[11]; [23]
  Plant response rating, Waterhemp: 100
[11]; [24]
  Waterhemp plant response rating: 100
[11]; [25]
  Waterhemp plant response rating: 70
